From US4528299A, “1-(2,3-Dimethyl-4-methoxyphenyl)-2-methyl-3-(1-pyrrolidinyl)-1-propanone and anti-spastic use thereof” (priority 1982, dated 1985) come the findings set out here.

For series [1], the system named is anemic decerebrate rigidity (α-rigidity). Description: Effect on anemic decerebrate rigidity (α-rigidity), EMG activity of M. triceps brachii, cumulative i.v. injection. In kind it is in vivo, Male rats of Wistar strain. As to conditions: for ED50: Rattus norvegicus, iv, 5 min, cumulative 1.25-20 mg/kg, dose reducing EMG activity to 50%; for ED50 / α-Rigidity reducing effect Duration: rats; for α-Rigidity reducing effect Duration: time from disappearance to reappearance of EMG activities after total dose of 20 mg/kg, i.v. The procedure:
Anemic decerebrate rigidity is known to be a model showing the abnormal hypertonia. This model was prepared according to the method of Fukuda et al [cf. Japan. J. Pharmacol. 24, 810-813 (1974)]. Male rats of Wistar strain, weighing 250 to 350 g, were used in groups of 5 animals. Under the ether anesthesia, the animal was fixed on its back. After the oesophagus and bilateral common carotid arteries were exposed, the trachea was cannulated and the oesophagus was cut between two placed ligatures. The occipital bone was exposed. The common carotid arteries were ligated bilaterally and a trephined opening was made in the central part of the bone. The dura matter was cut along the basilar artery, and the artery was cauterized with a coagulator of bipolar pincette electrodes (Micro-ID made by Mizuhoika Kogyo Co., Ltd., Japan). After the operation, anesthesia was discontinued. The marked rigidity occurred in the forelimbs within 15 minutes after the operation.
The rat was placed on its back and the hindlimbs fixed. Electromyogram (EMG) was recorded by a coaxial needle electrode inserted into the Musculus triceps brachii of the forelimbs. Reference electrode was inserted into the hindlimb muscle. EMG activities obtained from the muscle were amplified, transformed into the square wave pulses with the window discriminator, and fed into integrator, the out-put of which was amplified and recorded by an inkwriting recorder.
The test compounds were dissolved in distilled water. After the EMG activities had remained stable over 15 to 30 minutes, the test compounds were cumulatively injected at a 5-minute interval into a cannulated femoral vein. The doses administered were 1.25 mg/kg, 2.5 mg/kg, 5.0 mg/kg, 10 mg/kg and finally 20 mg/kg. The EMG activities were expressed as a percentage of the pre-injection value, and the maximal effect within 5 minutes was measured in each dose. The median effective dose (ED50), the dose which reduced the EMG activity to 50%, was calculated by the method of Litchfield and Wilcoxon. In addition, the time from disappearance to reappearance of EMG activities after total dose of 20 mg/kg was expressed as the duration of the effect.

Series [2] relates to muscle relaxation. Description: Muscle relaxant effect (Traction test). The conditions noted are these: for ED50: Mus musculus, ip, 0.25 h, i.p., mice, 15 minutes after administration. Type of series: in vivo, Male mice of STD-ddY strain. The protocol:
Traction test was used as an index of the muscle relaxation. Male mice of STD-ddY strain, weighing 20 to 25 g, were used in groups of 5 animals. The test compounds, suspended or dissolved in 0.5% tragacanth solution, were intraperitoneally administered at a volume of 0.1 ml/10 g body weight, and 15 minutes after the administration the muscle relaxant effects were examined according to the method of Courvoisier et al (cf. "Psychotropic Drugs", ed. by Garattini, S. and Ghetti, V., Elsevier Pub. Co., Amsterdam, 1957, page 373). The animal was suspended by their forelimbs on a horizontal metal bar with a diameter of 2 mm. The rod was 18 cm above the floor. The animals which could not put their hindlimb on the rod within 5 seconds were judged as a positive (all-or-nothing way). The median effective dose (ED50), the dose which caused the positive effects in 50% of animals, were calculated according to the method of Litchfield and Wilcoxon.

A short description of series [3]: Acute toxicity. In kind it is in vivo. The conditions noted are these: mouse, in vivo, ip, mice; for LD50 at 168 h: 7 days observation; for selectivity ratio: (LD50)/(ED50 of Muscle relaxant effect), i.p., read-out: Safety index. The procedure:
(§1) Male mice of STD-ddY strain, weighing 23 to 25 g, were used in groups of 10 animals. The test compounds, suspended or dissolved in 0.5% tragacanth solution, were intraperitoneally administered at a volume of 0.1 ml/10 g body weight. After the administration, the mice were kept for 7 days, and observed for death. The median lethal dose (LD50), the dose which caused death in 50% of animals, were calculated according to the method of Litchfield and Wilcoxon.

The test system of series [4] is mice. Description: Acute toxicity. In kind it is in vivo. The procedure:
as §1

For series [5], the system named is anemic decerebrate rigidity (α-rigidity). Briefly: Effect on anemic decerebrate rigidity (α-rigidity), EMG activity of M. triceps brachii, cumulative i.v. injection. In kind it is in vivo, Male rats of Wistar strain.

Structures are written as SMILES.

The ED50 is the midpoint of the dose-response relation. A high value points to a need for a large dose. By LD50 is commonly meant the dose at which mortality reaches 50%. The low end stands for a more toxic substance, the high end for a less toxic substance. For `COc1ccc(C(=O)C(C)CN2CCCC2)c(C)c1C` (stereo not drawn) [A, 1-(2,3-dimethyl-4-methoxyphenyl)-2-methyl-3-(1-pyrrolidinyl)-1-propanone], in series [1], it took a dose of 2.6 mg/kg to reach the 50% effect level (ED50) and the “α-Rigidity reducing effect Duration” value was 16.3 min. In addition, in series [1] (vs Compound No. 1), the “duration of action relative to Compound No. 1” value is listed as “about 23 times” and the “potency in the reducing activity of α-rigidity relative to Compound No. 1” value is on record as “about 4.7 times”. In series [1] (vs Compound No. 2), the “duration of action relative to Compound No. 2” value is reported as “about 5.8 times” and the “potency in the reducing activity of α-rigidity relative to Compound No. 2” value is “about 4.9 times”. Also, the “potency in α-rigidity reducing activity relative to Compound No. 3” value in series [1] (vs Compound No. 3) is reported as “about 7.8 times”. Further, the “potency in α-rigidity reducing activity relative to Compound No. 4” value in series [1] (vs Compound No. 4) is reported as “about 2.7 times”. In series [1] (vs Compound No. 5), the “duration of action relative to Compound No. 5” value is listed as “about 1.9 times” and the “potency in the reducing activity of α-rigidity relative to Compound No. 5” value is recorded as “about 6 times”. Moreover, the “potency in the reducing activity of α-rigidity relative to Compound No. 6” value in series [1] (vs Compound No. 6) was “about 2.8 times”. The “duration of action relative to Compound No. 6” value in series [1] (vs Compound No. 6, in words) is on record as “somewhat longer”. In addition, the “potency in the reducing activity of α-rigidity relative to Compound No. 7” value in series [1] (vs Compound No. 7) is given as “about 6.6 times”. The “potency in the reducing activity of α-rigidity relative to Compound No. 8” value in series [1] (vs Compound No. 8) is “about 3.7 times”. The “pharmacological activities relative to known analogous compound Nos. 1 to 5” value in series [1] (vs compound Nos. 1 to 5, overall conclusion from Tests 1-3) is given as “far greater”. Besides, in series [1] (vs compound Nos. 6 to 8, overall conclusion from Tests 1-3), the “pharmacological activities relative to novel analogous compound Nos. 6 to 8” value is “fairly or far greater”. The same compound returned an ED50 in series [2] of 68.5 mg/kg. For the same compound, the “potency in muscle relaxant activity relative to Compound No. 1” value in series [2] (vs Compound No. 1) is reported as “about 2.3 times”. Further, the “potency in muscle relaxant activity relative to Compound No. 3” value in series [2] (vs Compound No. 3) is given as about 2.3 times. Further, the “potency in muscle relaxant activity relative to Compound No. 4” value in series [2] (vs Compound No. 4) is listed as about 1.8 times. Further, in series [3], the LD50 at 168 h came to 161 mg/kg and the selectivity ratio was determined as 2.35. Further, the “safety index relative to Compound No. 1” value in series [4] (vs Compound No. 1) is “about 1.8 times”. Further, the “safety index relative to Compound No. 3” value in series [4] (vs Compound No. 3) was “about 1.5 times”. In addition, the “safety index relative to Compound No. 6” value in series [4] (vs Compound No. 6, in words) is given as “higher safety index”. The “safety index relative to Compound No. 8” value in series [4] (vs Compound No. 8, in words) is given as “higher safety index”.

For `Cc1ccc(C(=O)C(C)CN2CCCCC2)cc1` (stereo not drawn) [Compound 1, 2-methyl-1-p-methylphenyl-3-piperidino-1-propanone], in series [1], the 50% effect level (ED50) was put at a dose of 12.3 mg/kg and the “α-Rigidity reducing effect Duration” value turned out to be 0.7 min. In addition, in series [2], the ED50 turned out to be 156 mg/kg. For the same compound, in series [3], the LD50 at 168 h is 210 mg/kg and the selectivity ratio was 1.34.

Take `CCc1ccc(C(=O)C(C)CN2CCCCC2)cc1` (stereo not drawn) [Compound 2]: in series [1], it took a dose of 12.7 mg/kg to reach the 50% effect level (ED50) and the “α-Rigidity reducing effect Duration” value amounted to 2.8 min. For the same compound, it took a dose of 64.2 mg/kg to reach the 50% effect level in series [2] (ED50). Further, in series [3], the LD50 at 168 h is 129 mg/kg and the selectivity ratio was 2.01.

In the case of `COc1ccc(C(=O)C(C)CN2CCCCC2)cc1OC` (stereo not drawn) [Compound 3], the ED50 in series [1] turned out to be 20.2 mg/kg. The compound also gave a median effective dose (ED50) in series [2] of 158 mg/kg. Besides, in series [3], the LD50 at 168 h is 247 mg/kg and the selectivity ratio came to 1.56.

As for `Cc1cc(C)c(C(=O)C(C)CN2CCCCC2)c(C)c1` (stereo not drawn) [Compound 4], the results for the ED50 in series [1] and in series [2] were 6.9 mg/kg and 123 mg/kg, respectively. Also, the LD50 at 168 h in series [3] was 156 mg/kg. Further, the selectivity ratio in series [3] is 1.27. Moreover, the toxicity in rats entry in series [5] is on record as “high toxicity in rats”.

As to `Cc1ccc(C(=O)C(C)CN2CCCCC2)cc1C` (stereo not drawn) [Compound 5], in series [1], the ED50 turned out to be 15.6 mg/kg and the “α-Rigidity reducing effect Duration” value amounted to 8.8 min. Moreover, it took a dose of 59.3 mg/kg to reach the 50% effect level in series [2] (ED50). For the same compound, in series [3], the LD50 at 168 h stood at 140 mg/kg and the selectivity ratio was found to be 2.36.

`COc1ccc(C(=O)C(C)CN2CCCCC2)c(C)c1C` (stereo not drawn) [Compound 6]: in series [1], the 50% effect level (ED50) was put at a dose of 7.3 mg/kg and the “α-Rigidity reducing effect Duration” value stood at 11.4 min. The compound also yielded a median effective dose (ED50) in series [2] of 77.7 mg/kg. In addition, in series [3], the LD50 at 168 h came out at 145 mg/kg and the selectivity ratio is 1.87.

Regarding `COc1ccc(C(=O)CCN2CCCC2)c(C)c1C` [Compound 7], the ED50 worked out at 17.2 mg/kg in series [1] and 87.1 mg/kg in series [2]. For the same compound, in series [3], the LD50 at 168 h amounted to 174 mg/kg. The selectivity ratio in series [3] turned out to be 2.

For the compound `CCOc1ccc(C(=O)C(C)CN2CCCC2)c(C)c1C` (stereo not drawn) [Compound 8], in series [1], the ED50 was 9.6 mg/kg and the “α-Rigidity reducing effect Duration” value was 14.8 min. The ED50 in series [2] is 75.5 mg/kg. Also, in series [3], the LD50 at 168 h amounted to 134 mg/kg and the selectivity ratio was found to be 1.78.

With `COc1ccc(C(=O)C(C)CN2CCCC2)c(C)c1C` (stereo not drawn) [compound (I), 1-(2,3-dimethyl-4-methoxyphenyl)-2-methyl-3-(1-pyrrolidinyl)-1-propanone], the “central muscle relaxant activities in comparison with the known compounds” value in series [2] (overall conclusion, in words) is reported as “highly improved, excellent”. The toxicity result in series [4] (overall conclusion, in words) is “low toxicity”.
